# According to patent US20200181101A1, “BENZAMIDE INHIBITORS OF BACTERIAL LIPOPROTEIN SIGNAL PEPTIDASE” (The Scripps Research Institute, priority 2017, published 2020):
# Like-named read-outs stand apart in the source and are kept apart here. Square brackets hold non-standard residues; d marks the D form. Peptide text beside a SMILES is read from it. * marks the point of attachment. Sta = CC(C)C[C@H](N)[C@@H](O)CC(=O)O; Isovaleryl = CC(C)CC(=O)*
# Biological target: T1, Lsp from E. coli (Escherichia coli, UniProt P00804)
# T1 construct: The full-length Lsp clone from E. coli (residues 1-164); His6 with enterokinase cleavage site (pET19b) (N); made in house; host or cells: E. coli Lemo21 (DE3), pET19b vector
# Experiment: Lsp FRET activity assay, IC50 determination
# Type: biochemical
# Procedure: […] […] 50 μM Lsp FRET substrate was subsequently added and the rate of substrate hydrolysis was measured by increase in fluorescence (excitation 355 nm, emission 495 nm) in 96-well plates on a PerkinElmer EnVision plate reader or Tecan Safire 2 microplate reader. Michaelis-Menten constants and […] were determined using GraphPad Prism software (GraphPad, Inc.).
# [1] = Table 2, variation of R3, read-out: IC50
# [2] = FRET-based assay, [Lsp] = 100 nM, mean (± SD), read-out: IC50
# [3] = Table 5, E = 100 nM, read-out: IC50
# [4] = Table 7, linker variation, E = 100 nM, read-out: IC50
# [5] = Table 5, [Lsp] = 20 nM, read-out: IC50
# [6] = FRET-based assay, [Lsp] = 400 nM, mean (± SD), read-out: IC50
# T1 sequence (P00804 whole entry, the tested form may be a part): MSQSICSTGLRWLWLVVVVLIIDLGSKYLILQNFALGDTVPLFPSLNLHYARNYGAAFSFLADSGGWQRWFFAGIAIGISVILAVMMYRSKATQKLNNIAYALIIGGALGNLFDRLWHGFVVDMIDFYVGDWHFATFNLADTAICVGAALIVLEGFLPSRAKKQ
molecule,measurement,setting,value
COc1cc(C(=O)Nc2nnc(C(C)C)s2)c([N+](=O)[O-])cc1OC [Sk061-69-1],IC50,[1],44 µM
same,IC50,"Table 3, read-out: IC50",44 µM
CCC(CC)c1nnc(NC(=O)c2ccccc2C(=O)OC)s1 [Sk056-13-2],IC50,"Table 4, read-out: IC50",12 µM
COc1cc(C(=O)Nc2nnc(C3CC3)s2)c([N+](=O)[O-])cc1OC [Sk052-147-1],IC50,[1],208 µM
CCC(CC)c1nnc(NC(=O)c2ccc(OC)cc2[N+](=O)[O-])s1 [Sk052-146-2],IC50,"Table 4, read-out: IC50",2.2 µM
"CCC(CC)c1nnc(NC(=O)c2cc(OC)c(OC(C)C)cc2[N+](=O)[O-])s1 [1i, 4-isopropoxy-5-methoxy-2-nitro-N-(5-(pentan-3-yl)-1,3,4-thiadiazol-2-yl)benzamide]",effect on cleaved substrate fluorescence,,no effect
same,IC50,[2],0.21 µM
same,Hill constant,"[S]=50 μM, [Lsp]=100 nM",approximately 1
CCC(CC)c1nnc(NC(=O)c2cc(Cl)c(Oc3ccc(NC(=O)OC(C)(C)C)cc3)cc2[N+](=O)[O-])s1 [Sk061-29],IC50,[3],0.64 µM
same,IC50,[4],0.64 µM
CCCCC(CC)c1nnc(NC(=O)c2cc(OC)c(OC)cc2[N+](=O)[O-])s1 (stereo not drawn) [Sk061-69-4],IC50,[1],2.5 µM
"CC(C)CC(=O)N[C@H](C(=O)N[C@H](C(=O)N[C@@H](CC(C)C)[C@@H](O)CC(=O)N[C@@H](C)C(=O)N[C@@H](CC(C)C)[C@@H](O)CC(=O)O)C(C)C)C(C)C [pepstatin, reference compound] (Isovaleryl-VV[Sta]A[Sta]-OH)",inhibition of E. coli Lsp by known aspartic acid protease inhibitors,,no known aspartic acid protease inhibitors
COC(=O)CCc1nnc(NC(=O)c2cc(OC)c(OC)cc2[N+](=O)[O-])s1 [Sk052-147-3],IC50,[1],> 200 µM
"CCCCCCOc1cc([N+](=O)[O-])c(C(=O)Nc2nnc(C(CC)CC)s2)cc1OC [1h, 4-(hexyloxy)-5-methoxy-2-nitro-N-(5-(pentan-3-yl)-1,3,4-thiadiazol-2-y)benzamide]",IC50,[2],0.11 µM
CCC(CC)c1nnc(NC(=O)c2cc(Cl)c(Oc3ccccc3)cc2[N+](=O)[O-])s1 [Sk056-22-2],IC50,[5],0.19 µM
"CCC(CC)c1nnc(NC(=O)c2cc(OC)c(OC)cc2[N+](=O)[O-])s1 [1a, 4,5-dimethoxy-2-nitro-N-(5-(pentan-3-yl)-1,3,4-thiadiazol-2-yl)benzamide]",IC50,[6],4.2 µM
same,IC50,[1],4.2 ± 1 µM
same,manner of Lsp inhibition,biochemical analysis,non-competitive
CCC(CC)c1nnc(NC(=O)c2cc(Cl)c(Oc3ccc(N)cc3)cc2[N+](=O)[O-])s1 [Sk061-32],IC50,[3],~4 µM
CCC(CC)c1nnc(NC(=O)c2cc(Cl)c(OC3CCCN(C(=O)OC(C)(C)C)C3)cc2[N+](=O)[O-])s1 (stereo not drawn) [Sk061-80-5],IC50,[4],0.83 µM
CCCc1nnc(NC(=O)c2cc(OC)c(OC)cc2[N+](=O)[O-])s1 [Sk054-141-2],IC50,[1],26 µM
CCC(CC)c1nnc(NC(=O)c2ccccc2[N+](=O)[O-])s1 [Sk054-91-1],IC50,"Table 4, read-out: IC50",11 ± 3 µM
CCC(CC)c1nnc(NC(=O)c2cc(Cl)c(Oc3ccc(O)cc3)cc2[N+](=O)[O-])s1 [Sk061-30-1],IC50,[3],> 4 µM
COc1cc(C(=O)Nc2nnc(CCc3ccccc3)s2)c([N+](=O)[O-])cc1OC [Sk052-88-2],IC50,[1],20 µM
CCC(CC)c1nnc(NC(=O)c2ccc(OS(=O)(=O)F)cc2O)s1 [Sk056-50-4],IC50,,290 µM
CCC(CC)c1nnc(NC(=O)c2cc(Cl)c(OCCCCNC(=O)OC(C)(C)C)cc2[N+](=O)[O-])s1 [Sk061-80-2],IC50,[4],1.6 µM
CCC(C)c1nnc(NC(=O)c2cc(OC)c(OC)cc2[N+](=O)[O-])s1 (stereo not drawn) [Sk061-69-2],IC50,[1],8.7 µM
CCCC(CCC)c1nnc(NC(=O)c2cc(OC)c(OC)cc2[N+](=O)[O-])s1 [Sk052-88-1],IC50,[1],1.1 µM
CCC(CC)c1nnc(NC(=O)c2c(Cl)cccc2[N+](=O)[O-])s1 [Sk056-82-2],IC50,"Table 4, read-out: IC50",260 µM
CCC(CC)c1nnc(NC(=O)c2ccc(OC)cc2N)s1 [Sk054-142],IC50,"Table 4, read-out: IC50",11 µM
"CC(C)(C)NC(=O)[C@@H]1C[C@@H]2CCCC[C@@H]2CN1C[C@@H](O)[C@H](Cc1ccccc1)NC(=O)[C@H](CC(N)=O)NC(=O)c1ccc2ccccc2n1 [saquinavir, reference compound]",inhibition of E. coli Lsp by known aspartic acid protease inhibitors,,no known aspartic acid protease inhibitors
CCC(CC)c1nnc(NC(=O)c2ccccc2C(=O)O)s1 [Sk056-24],IC50,"Table 4, read-out: IC50",270 µM
CCC(CC)c1nnc(NC(=O)c2ccc(OC3CCCC3)cc2[N+](=O)[O-])s1 [Sk054-116-1],IC50,[5],0.4 µM
O=C(Nc1nnc(CCCCCCl)s1)c1cc(Cl)c(OC2CCCC2)cc1[N+](=O)[O-] [Sk056-15],IC50,"Table 6, read-out: IC50",3.8 µM
CCC(CC)c1nnc(NC(=O)c2cc(Cl)c(OCCNC(=O)OC(C)(C)C)cc2[N+](=O)[O-])s1 [Sk061-68],IC50,[4],0.21 µM
"COCCCOc1cc(C[C@@H](C[C@H](N)[C@@H](O)C[C@H](C(=O)NCC(C)(C)C(N)=O)C(C)C)C(C)C)ccc1OC [aliskiren, reference compound]",inhibition of E. coli Lsp by known aspartic acid protease inhibitors,,no known aspartic acid protease inhibitors
"CCOc1cc([N+](=O)[O-])c(C(=O)Nc2nnc(C(CC)CC)s2)cc1OC [1f, 4-ethoxy-5-methoxy-2-nitro-N-(5-(pentan-3-yl)-1,3,4-thiadiazol-2-yl)benzamide]",IC50,[6],1.2 µM
O=C(O)CCSCCCCCc1nnc(NC(=O)c2cc(Cl)c(OC3CCCC3)cc2[N+](=O)[O-])s1 [Sk056-27],IC50,"Table 6, read-out: IC50",11 µM
CCC(CC)c1nnc(NC(=O)c2ccc(OC)c(OC)c2)s1 [1b],"potency against Lsp, in words (SAR)",,ablated the potency
same,IC50,[6],110 µM
CCOC(=O)Cc1nnc(NC(=O)c2cc(OC)c(OC)cc2[N+](=O)[O-])s1 [Sk052-27-2],IC50,[1],78 µM
COc1cc(C(=O)Nc2ccc(C(C)C)cn2)c([N+](=O)[O-])cc1OC [Sk056-82-3],IC50,"Table 3, read-out: IC50",> 400 µM
CCC(CC)c1nnc(NC(=O)c2ccc(C(F)(F)F)cc2[N+](=O)[O-])s1 [Z123635394],IC50,"Table 4, read-out: IC50",9.3 µM
CCC(CC)c1nnc(NC(=O)c2ccccc2CC(=O)OC)s1 [Sk056-82-1],IC50,"Table 4, read-out: IC50",21 µM
CCC(CC)c1nnc(NC(=O)c2cc(OS(=O)(=O)On3nnc4ncccc43)ccc2[N+](=O)[O-])s1 [Sk054-141-1],IC50,"Table 4, read-out: IC50",120 µM
CCC(CC)c1nnc(NC(=O)c2cc(OC)ccc2[N+](=O)[O-])s1 [Sk052-146-1],IC50,"Table 4, read-out: IC50",3.6 µM
"CC(C)[C@H](O)C(=O)N[C@@H](C)C(=O)N[C@@H]1C(=O)N(C)CCc2ccccc21 [semagacestat, reference compound]",inhibition of E. coli Lsp by known aspartic acid protease inhibitors,,no known aspartic acid protease inhibitors
CCC(CC)c1nnc(NC(=O)c2ccc(NC(C)=O)cc2[N+](=O)[O-])s1 [Sk054-112-2],IC50,"Table 4, read-out: IC50",160 µM
"COC(=O)N[C@H](C(=O)N[C@@H](Cc1ccccc1)[C@@H](O)CN(Cc1ccc(-c2ccccn2)cc1)NC(=O)[C@@H](NC(=O)OC)C(C)(C)C)C(C)(C)C [atazaniavir, reference compound]",inhibition of E. coli Lsp by known aspartic acid protease inhibitors,,no known aspartic acid protease inhibitors
CCCCc1nnc(NC(=O)c2cc(OC)c(OC)cc2[N+](=O)[O-])s1 [1d],IC50,[6],29 µM
same,IC50,[1],29 ± 0.6 µM
"CCCCOc1cc([N+](=O)[O-])c(C(=O)Nc2nnc(C(CC)CC)s2)cc1OC [1g, 4-butoxy-5-methoxy-2-nitro-N-(5-(pentan-3-yl)-1,3,4-thiadiazol-2-yl)benzamide]",IC50,[2],0.54 µM
CCC(CC)c1nnc(NC(=O)c2cc(Cl)c(OCCCNC(=O)OC(C)(C)C)cc2[N+](=O)[O-])s1 [Sk061-80-1],IC50,[4],1.7 µM
CCC(CC)c1nnc(NC(=O)c2cc(Cl)c(OCCCCCCN)cc2[N+](=O)[O-])s1 [Sk061-45],IC50,[3],> 4 µM
COc1cc(C(=O)Nc2nnc(C3CCCCC3)s2)c([N+](=O)[O-])cc1OC [Sk052-56],IC50,[1],> 400 µM
COc1cc(C(=O)Nc2nnc(C(C)(C)C)s2)c([N+](=O)[O-])cc1OC [Sk061-69-3],IC50,[1],36 µM
CCC(CC)c1nnc(NC(=O)c2ccc(OC)cn2)s1 [Sk054-91-2],IC50,"Table 4, read-out: IC50",> 400 µM
CCC(CC)c1nnc(NC(=O)c2cc(Cl)c(OCCCCCCNC(=O)OC(C)(C)C)cc2[N+](=O)[O-])s1 [Sk061-54],IC50,[3],~2.3 µM
same,IC50,[4],2.3 µM
CCC(CC)c1nnc(NC(=O)c2cc(Cl)c(OC3CCC(C)(C)CC3)cc2[N+](=O)[O-])s1 [Sk061-31-1],IC50,[3],0.23 µM
CCC(CC)c1nnc(NC(=O)c2cc(OS(=O)(=O)F)ccc2[N+](=O)[O-])s1 [Sk054-144],IC50,,65 µM
CCC(CC)c1nnc(NC(=O)c2cc(Cl)c(OC3CCCCC3)cc2[N+](=O)[O-])s1 [Sk056-29],IC50,[5],0.068 µM
"O=S(=O)(N[C@H](CO)C(C(F)(F)F)C(F)(F)F)c1ccc(Cl)s1 [begacestat, reference compound]",inhibition of E. coli Lsp by known aspartic acid protease inhibitors,,no known aspartic acid protease inhibitors
CCC(CC)c1nnc(NC(=O)c2cc(OC)c(OC3CCCC3)cc2[N+](=O)[O-])s1 [Sk052-145-2],IC50,[5],0.073 µM
COc1cc(C(=O)Nc2ccc(C(C)C)nc2)c([N+](=O)[O-])cc1OC [Sk056-82-4],IC50,"Table 3, read-out: IC50",> 400 µM
CCC(CC)c1nnc(NC(=O)c2cc(Cl)c(SC3CCCC3)cc2[N+](=O)[O-])s1 [Sk056-22-1],IC50,[5],0.02 µM
CCC(CC)c1nnc(NC(=O)c2cc(Cl)c(OC3CCC(F)(F)CC3)cc2[N+](=O)[O-])s1 [Sk061-31-2],IC50,[3],0.58 µM
CCC(CC)c1nnc(NC(=O)c2ccc(F)cc2[N+](=O)[O-])s1 [Sk054-91-3],IC50,"Table 4, read-out: IC50",7.2 µM
"N-(5-buty-1,3,4-oxadiazol-2-yl)-4,5-dimethoxy-2-nitrobenzamide [1e]","potency against Lsp, in words (SAR)",,inactive
same,IC50,[6],> 400 µM
CCC(CC)c1nnc(NC(=O)c2ccc(NCCS(=O)(=O)F)cc2[N+](=O)[O-])s1 [Sk056-45-3],IC50,,19 µM
CCC(CC)c1nnc(NC(=O)c2cc(Cl)c(OC3CCN(C(=O)OC(C)(C)C)CC3)cc2[N+](=O)[O-])s1 [Sk061-80-4],IC50,[4],1.1 µM
